PubChem BioAssay AID1963856 (Molecular Pharmacology Branch, DTP, NCI, 2024)

Tested on: LG0567-F671-PDC KRAS tumor spheroid viability
Experiment: Anticancer human tumor LG0567-F671-PDC patient-derived lung adenocarcinoma cell line growth inhibition [KRAS2]
Conditions: spheroids with HUVEC and MSC; for viability, T/C: stronger effect = lower value
Outline: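 Combination screen of spheroid viability in tumor-cell co-cultures with endothelial (HUVEC) and mesenchymal stem cell stroma. Each agent was tested in half-log dilutions, topping at clinical Cmax or at 10 microM without a known Cmax.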

[1] = curve of first compound, second compound 0.0316 µM
[2] = curve of first compound, second compound 0.1 µM
[3] = curve of first compound, second compound 0.316 µM
[4] = curve of first compound, second compound 1 µM
[5] = curve of first compound, second compound 3.16 µM
[6] = second compound 0.0316 µM, first compound 0.0316 µM
[7] = second compound 0.0316 µM, first compound 0.1 µM
[8] = second compound 0.0316 µM, first compound 0.316 µM
[9] = second compound 0.0316 µM, first compound 1 µM
[10] = second compound 0.0316 µM, first compound 3.16 µM
[11] = second compound 0.1 µM, first compound 0.01 µM
[12] = second compound 0.1 µM, first compound 0.0316 µM
[13] = second compound 0.1 µM, first compound 0.1 µM
[14] = second compound 0.1 µM, first compound 0.316 µM
[15] = second compound 0.1 µM, first compound 1 µM
[16] = second compound 0.1 µM, first compound 3.16 µM
[17] = second compound 0.316 µM, first compound 0.01 µM
[18] = second compound 0.316 µM, first compound 0.0316 µM
[19] = second compound 0.316 µM, first compound 0.1 µM
[20] = second compound 0.316 µM, first compound 0.316 µM
[21] = second compound 0.316 µM, first compound 1 µM
[22] = second compound 0.316 µM, first compound 3.16 µM
[23] = second compound 1 µM, first compound 0.01 µM
[24] = second compound 1 µM, first compound 0.0316 µM
[25] = second compound 1 µM, first compound 0.1 µM
[26] = second compound 1 µM, first compound 0.316 µM
[27] = second compound 1 µM, first compound 1 µM
[28] = second compound 1 µM, first compound 3.16 µM
[29] = second compound 3.16 µM, first compound 0.01 µM
[30] = second compound 3.16 µM, first compound 0.0316 µM
[31] = second compound 3.16 µM, first compound 0.1 µM
[32] = second compound 3.16 µM, first compound 0.316 µM
[33] = second compound 3.16 µM, first compound 1 µM
[34] = second compound 3.16 µM, first compound 3.16 µM
[35] = curve of first compound, second compound 10 µM
[36] = second compound 0.1 µM, first compound 10 µM
[37] = second compound 0.316 µM, first compound 10 µM
[38] = second compound 1 µM, first compound 10 µM
[39] = second compound 3.16 µM, first compound 10 µM
[40] = second compound 10 µM, first compound 0.0316 µM
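Also: drug exposure lasted seven days after spheroids formed for three days.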
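For viability, T/C in this document: 100% = DMSO vehicle control viability.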

CC(=O)OC12COC1CC(O)C1(C)C(=O)C(O)C3=C(C)C(OC(=O)C(O)C(NC(=O)OC(C)(C)C)c4ccccc4)CC(O)(C(OC(=O)c4ccccc4)C21)C3(C)C (stereo not given) + C=CC(=O)N1CCN(c2nc(OCC3CCCN3C)nc3c2CCN(c2cccc4cccc(C)c24)C3)CC1CC#N
IC50 [1]: < 0.01 µM | IC50 [2]: < 0.01 µM | IC50 [3]: < 0.01 µM | IC50 [4]: < 0.01 µM | IC50 [5]: < 0.01 µM | viability, T/C (second compound 0.0316 µM, first compound 0.01 µM): 18.9% | viability, T/C [6]: 16.2% | viability, T/C [7]: 18.9% | viability, T/C [8]: 21.9% | viability, T/C [9]: 22.9% | viability, T/C [10]: 19.9% | viability, T/C [11]: 14.5% | viability, T/C [12]: 13.2% | viability, T/C [13]: 16.1% | viability, T/C [14]: 16.5% | viability, T/C [15]: 19.4% | viability, T/C [16]: 15.8% | viability, T/C [17]: 15.8% | viability, T/C [18]: 13.9% | viability, T/C [19]: 15.7% | viability, T/C [20]: 13.8% | viability, T/C [21]: 16.9% | viability, T/C [22]: 14.7% | viability, T/C [23]: 16.6% | viability, T/C [24]: 15.4% | viability, T/C [25]: 15.9% | viability, T/C [26]: 15.3% | viability, T/C [27]: 16.8% | viability, T/C [28]: 14.4% | viability, T/C [29]: 40.1% | viability, T/C [30]: 37.1% | viability, T/C [31]: 25.7% | viability, T/C [32]: 36.4% | viability, T/C [33]: 33.6% | viability, T/C [34]: 36.6%

CC(C)NCC(C(=O)N1CCN(c2ncnc3c2C(C)CC3O)CC1)c1ccc(Cl)cc1 (stereo not given) + COc1cc2nc(C)nc(NC(C)c3cc(N)cc(C(F)(F)F)c3)c2cc1OC1CCOC1
IC50 [2]: 0.484 µM | IC50 [3]: 0.467 µM | IC50 [4]: 0.216 µM | IC50 [5]: 0.415 µM | IC50 [35]: 0.0507 µM | viability, T/C [12]: 75.4% | viability, T/C [13]: 69.1% | viability, T/C [14]: 56.2% | viability, T/C [15]: 42% | viability, T/C [16]: 14.1% | viability, T/C [36]: 33.5% | viability, T/C [18]: 75.8% | viability, T/C [19]: 65.2% | viability, T/C [20]: 59.1% | viability, T/C [21]: 33.9% | viability, T/C [22]: 8.71% | viability, T/C [37]: 23.5% | viability, T/C [24]: 71.5% | viability, T/C [25]: 58.5% | viability, T/C [26]: 44% | viability, T/C [27]: 32.2% | viability, T/C [28]: 7.19% | viability, T/C [38]: 2.61% | viability, T/C [30]: 60.1% | viability, T/C [31]: 58.3% | viability, T/C [32]: 66.4% | viability, T/C [33]: 12% | viability, T/C [34]: 5.68% | viability, T/C [39]: 19.6% | viability, T/C [40]: 56.7% | viability, T/C (second compound 10 µM, first compound 0.1 µM): 39.8% | viability, T/C (second compound 10 µM, first compound 0.316 µM): 21.6% | viability, T/C (second compound 10 µM, first compound 1 µM): 5.09% | viability, T/C (second compound 10 µM, first compound 3.16 µM): 3.01% | viability, T/C (second compound 10 µM, first compound 10 µM): 4.23%

COc1cc2nccc(Oc3ccc(NC(=O)C4(C(=O)Nc5ccc(F)cc5)CC4)cc3)c2cc1OC
viability, T/C (compound 0.0316 µM): 92% [middle of 5 runs] | viability, T/C (compound 0.1 µM): 78.3% [middle of 5 runs] | viability, T/C (compound 0.316 µM): 75.1% [middle of 5 runs] | viability, T/C (compound 1 µM): 67% [middle of 5 runs] | IC50 (curve of compound): > 10 µM

Cn1nccc1Nc1nccc(-c2cc3c(s2)C(C)(C)N(CCN2CCOCC2)C3=O)n1 + C=CC(=O)N1CCN(c2nc(OCC3CCCN3C)nc3c2CCN(c2cccc4cccc(C)c24)C3)CC1CC#N
IC50 [1]: < 0.0316 µM | IC50 [2]: < 0.0316 µM | IC50 [3]: < 0.0316 µM | IC50 [4]: < 0.0316 µM | IC50 [5]: < 0.0316 µM | viability, T/C [6]: 34.5% | viability, T/C [7]: 28.7% | viability, T/C [8]: 39.7% | viability, T/C [9]: 19.2% | viability, T/C [10]: 19.9% | viability, T/C (second compound 0.0316 µM, first compound 10 µM): 19.7% | viability, T/C [12]: 26.8% | viability, T/C [13]: 31.8% | viability, T/C [14]: 28% | viability, T/C [15]: 23.3% | viability, T/C [16]: 17.8% | viability, T/C [36]: 21.1% | viability, T/C [18]: 33.2% | viability, T/C [19]: 25.8% | viability, T/C [20]: 21.2% | viability, T/C [21]: 35.5% | viability, T/C [22]: 16.8% | viability, T/C [37]: 19.1% | viability, T/C [24]: 29.6% | viability, T/C [25]: 26.9% | viability, T/C [26]: 33.1% | viability, T/C [27]: 26.5% | viability, T/C [28]: 15.3% | viability, T/C [38]: 19.4% | viability, T/C [30]: 29.3% | viability, T/C [31]: 29.1% | viability, T/C [32]: 28.1% | viability, T/C [33]: 23.2% | viability, T/C [34]: 21.7% | viability, T/C [39]: 24.4%

CC(=O)Nc1cccc(-n2c(=O)n(C3CC3)c(=O)c3c(Nc4ccc(I)cc4F)n(C)c(=O)c(C)c32)c1 + CC1OCC2(CCN(c3cnc(Sc4ccnc(N)c4Cl)c(N)n3)CC2)C1N
IC50 [2]: < 0.0001 µM | IC50 [3]: < 0.0001 µM | IC50 [4]: < 0.0001 µM | IC50 [5]: < 0.0001 µM | IC50 [35]: < 0.0001 µM | viability, T/C (second compound 0.1 µM, first compound 0.0001 µM): 53.7% | viability, T/C (second compound 0.1 µM, first compound 0.000316 µM): 44.6% | viability, T/C (second compound 0.1 µM, first compound 0.001 µM): 49.4% | viability, T/C (second compound 0.1 µM, first compound 0.00316 µM): 44.7% | viability, T/C [11]: 22.7% | viability, T/C [12]: 7.91% | viability, T/C (second compound 0.316 µM, first compound 0.0001 µM): 37.1% | viability, T/C (second compound 0.316 µM, first compound 0.000316 µM): 31.2% | viability, T/C (second compound 0.316 µM, first compound 0.001 µM): 25.6% | viability, T/C (second compound 0.316 µM, first compound 0.00316 µM): 21.9% | viability, T/C [17]: 14.9% | viability, T/C [18]: 7.83% | viability, T/C (second compound 1 µM, first compound 0.0001 µM): 22.4% | viability, T/C (second compound 1 µM, first compound 0.000316 µM): 21.8% | viability, T/C (second compound 1 µM, first compound 0.001 µM): 17.6% | viability, T/C (second compound 1 µM, first compound 0.00316 µM): 8.6% | viability, T/C [23]: 6.42% | viability, T/C [24]: 3.01% | viability, T/C (second compound 3.16 µM, first compound 0.0001 µM): 14.7% | viability, T/C (second compound 3.16 µM, first compound 0.000316 µM): 8.03% | viability, T/C (second compound 3.16 µM, first compound 0.001 µM): 2.89% | viability, T/C (second compound 3.16 µM, first compound 0.00316 µM): 1.92% | viability, T/C [29]: 1.41% | viability, T/C [30]: 3.95% | viability, T/C (second compound 10 µM, first compound 0.0001 µM): 5.94% | viability, T/C (second compound 10 µM, first compound 0.000316 µM): 2.29% | viability, T/C (second compound 10 µM, first compound 0.001 µM): 2.96% | viability, T/C (second compound 10 µM, first compound 0.00316 µM): 1.63% | viability, T/C (second compound 10 µM, first compound 0.01 µM): 1.31% | viability, T/C [40]: 2.49%
